Measurements published in patent US11091478B2 (Fochon Pharmaceuticals, Ltd., priority 2017, dated 2021).

Columns and labels:
DOHH2 cells = experiment: Cell proliferation assay (MTS), DOHH2 cells, 120 h; type: cell-based; conditions: Homo sapiens, DOHH-2, 120 h
Summary of the method: (§1)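 Treatment lasts 72 h for RS4;11 and 120 h for DOHH2 cells seeded at 5000 per well in serum-containing RPMI-1640. A 2 h MTS step, halted with 10% SDS, precedes dual-wavelength absorbance reading and IC50 fitting.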

RS4;11 cells = experiment: Cell proliferation assay (MTS), RS4;11 cells, 72 h; type: cell-based; conditions: Homo sapiens, RS4-11, 72 h
Summary of the method: as §1

IC50 (RS4;11 cells)	Compound	IC50 (DOHH2 cells)
50 nM	CC1(C)CCC(CN2CCN(c3ccc(C(=O)NS(=O)(=O)c4cc5c(c([N+](=O)[O-])c4)N[C@H](CN4CCS(=O)(=O)CC4)CO5)c(Oc4cnc5[nH]ccc5c4)c3)CC2)=C(c2ccc(Cl)cc2)C1 [Example 2-149, (R)-2-((1H-pyrrolo[2,3-b]pyridin-5-yl)oxy)-4-(4-((4′-chloro-5,5-dimethyl-3,4,5,6-tetra-hydro-[1,1′-biphenyl]-2-yl)methyl)piperazin-1-yl)-N-((3-((1,1-dioxidothiomorpholino)methyl)-5-nitro-3,4-dihydro-2H-benzo[b] [1,4]oxazin-7-yl)sulfonyl)benzamide]	247 nM
45 nM	CC1(C)CCC(CN2CCN(c3ccc(C(=O)NS(=O)(=O)c4cc5c(c([N+](=O)[O-])c4)N[C@H](CN4CCC(N=S(C)(C)=O)CC4)CO5)c(Oc4cnc5[nH]ccc5c4)c3)CC2)=C(c2ccc(Cl)cc2)C1 [Example 2-150]	67 nM
1 nM	CC1(C)CCC(CN2CCN(c3ccc(C(=O)NS(=O)(=O)c4cc5c(c([N+](=O)[O-])c4)N[C@H](CN4CCC(NS(C)(=O)=O)CC4)CO5)c(Oc4cnc5[nH]ccc5c4)c3)CC2)=C(c2ccc(Cl)cc2)C1 [Example 2-151, (R)-2-((1H-pyrrolo[2,3-b]pyridin-5-yl)oxy)-4-(4-((4′-chloro-5,5-dimethyl-3,4,5,6-tetra-hydro-[1,1′-biphenyl]-2-yl)methyl)piperazin-1-yl)-N-((3-((4-(methylsulfonamido)pi-peridin-1-yl)methyl)-5-nitro-3,4-dihydro-2H-benzo[b][1,4]oxazin-7-yl)sulfonyl)benzamide]	2 nM
1 nM	COC(=O)NC1CCN(C[C@@H]2COc3cc(S(=O)(=O)NC(=O)c4ccc(N5CCN(CC6=C(c7ccc(Cl)cc7)CC(C)(C)CC6)CC5)cc4Oc4cnc5[nH]ccc5c4)cc([N+](=O)[O-])c3N2)CC1 [Example 2-152, methyl (R)-(1-((7-(N-(2-((1H-pyrrolo[2,3-b]pyridin-5-yl)oxy)-4-(4-((4′-chloro-5,5-dimethyl-3,4,5,6-tetrahydro-[1,1′-biphenyl]-2-yl)meth-yl)piperazin-1-yl)benzoyl)sulfamoyl)-5-nitro-3,4-dihydro-2H-benzo[b][1,4]oxazin-3-yl)methyl)piperidin-4-yl)carbamate]	1 nM
1 nM	CC1(C)CCC(CN2CCN(c3ccc(C(=O)NS(=O)(=O)c4cc5c(c([N+](=O)[O-])c4)N[C@@H](CCN4CCS(=O)(=O)CC4)CO5)c(Oc4cnc5[nH]ccc5c4)c3)CC2)=C(c2ccc(Cl)cc2)C1 [Example 2-153, (S)-2-((1H-pyrrolo[2,3-b]pyridin-5-yl)oxy)-4-(4-((4′-chloro-5,5-dimethyl-3,4,5,6-tetra-hydro-[1,1′-biphenyl]-2-yl)methyl)piperazin-1-yl)-N-((3-(2-(1,1-dioxidothiomorpholino)ethyl)-5-nitro-3,4-dihydro-2H-benzo[b] [1,4]oxazin-7-yl)sulfonyl)benzamide]	8 nM
24 nM	CC1(C)CCC(CN2CCN(c3ccc(C(=O)NS(=O)(=O)c4cc5c(c([N+](=O)[O-])c4)N[C@H](CN4CCP(C)(=O)CC4)CO5)c(Oc4cnc5[nH]ccc5c4)c3)CC2)=C(c2ccc(Cl)cc2)C1 [Example 2-154, (R)-2-((1H-pyrrolo[2,3-b]pyridin-5-yl)oxy)-4-(4-((4′-chloro-5,5-dimethyl-3,4,5,6-tetra-hydro-[1,1′-biphenyl]-2-yl)methyl)piperazin-1-yl)-N-((3-((4-methyl-4-oxido-1,4-aza-phosphinan-1-yl)methyl)-5-nitro-3,4-dihydro-2H-benzo[b][1,4]oxazin-7-yl)sulfonyl) benzamide]	201 nM
66 nM	CC1(C)CCC(CN2CCN(c3ccc(C(=O)NS(=O)(=O)c4cc5c(c([N+](=O)[O-])c4)N[C@H](CCN4CCP(C)(=O)CC4)CO5)c(Oc4cnc5[nH]ccc5c4)c3)CC2)=C(c2ccc(Cl)cc2)C1 [Example 2-155, (R)-2-((1H-pyrrolo[2,3-b]pyridin-5-yl)oxy)-4-(4-((4′-chloro-5,5-dimethyl-3,4,5,6-tetra-hydro-[1,1′-biphenyl]-2-yl)methyl)piperazin-1-yl)-N-((3-(2-(4-methyl-4-oxido-1,4-aza-phosphinan-1-yl)ethyl)-5-nitro-3,4-dihydro-2H-benzo[b][1,4]oxazin-7-yl)sulfonyl) benzamide]	459 nM
19 nM	CC1(C)CCC(CN2CCN(c3ccc(C(=O)NS(=O)(=O)c4cc5c(c([N+](=O)[O-])c4)N[C@H](Cc4ccccc4)CO5)c(Oc4cnc5[nH]ccc5c4)c3)CC2)=C(c2ccc(Cl)cc2)C1 [Example 2-156, (R)-2-((1H-pyrrolo[2,3-b]pyridin-5-yl)oxy)-N-((3-benzyl-5-nitro-3,4-dihdyro-2H-benzo[b][1,4]oxazin-7-yl)sulfonyl)-4-(4-((4′-chloro-5,5-dimethyl-3,4,5,6-tetrahydro-[1,1′-biphenyl]-2-yl)methyl)piperazin-1-yl)benza-mide]	6 nM
10 nM	CC1(C)CCC(CN2CCN(c3ccc(C(=O)NS(=O)(=O)c4cc5c(c([N+](=O)[O-])c4)N[C@H](Cc4ccccc4F)CO5)c(Oc4cnc5[nH]ccc5c4)c3)CC2)=C(c2ccc(Cl)cc2)C1 [Example 2-157, (R)-2-((1H-pyrrolo[2,3-b]pyridin-5-yl)oxy)-4-(4-((4′-chloro-5,5-dimethyl-3,4,5,6-tetra-hydro-[1,1′-biphenyl]-2-yl)methyl)piperazin-1-yl)-N-((3-(2-fluorobenzyl)-5-nitro-3,4-dihydro-2H-benzo[b][1,4]oxazin-7-yl)sulfo-nyl)benzamide]	39 nM
43 nM	CC1(C)CCC(CN2CCN(c3ccc(C(=O)NS(=O)(=O)c4cc5c(c([N+](=O)[O-])c4)N[C@H](Cc4ccc(F)cc4)CO5)c(Oc4cnc5[nH]ccc5c4)c3)CC2)=C(c2ccc(Cl)cc2)C1 [Example 2-158, (R)-2-((1H-pyrrolo[2,3-b]pyridin-5-yl)oxy)-4-(4-((4′-chloro-5,5-dimethyl-3,4,5,6-tetra-hydro-[1,1′-biphenyl]-2-yl)methyl)piperazin-1-yl)-N-((3-(4-fluorobenzyl)-5-nitro-3,4-dihydro-2H-benzo[b][1,4]oxazin-7-yl)sulfo-nyl)benzamide]	135 nM
29 nM	CC1(C)CCC(CN2CCN(c3ccc(C(=O)NS(=O)(=O)c4cc5c(c([N+](=O)[O-])c4)N[C@H](Cc4ccccc4Cl)CO5)c(Oc4cnc5[nH]ccc5c4)c3)CC2)=C(c2ccc(Cl)cc2)C1 [Example 2-159, (R)-2-((1H-pyrrolo[2,3-b]pyridin-5-yl)oxy)-4-(4-((4′-chloro-5,5-dimethyl-3,4,5,6-tetra-hydro-[1,1′-biphenyl]-2-yl)methyl)piperazin-1-yl)-N-((3-(2-chlorobenzyl)-5-nitro-3,4-dihydro-2H-benzo[b][1,4]oxazin-7-yl)sulfo-nyl)benzamide]	47 nM
95 nM	CC1(C)CCC(CN2CCN(c3ccc(C(=O)NS(=O)(=O)c4cc5c(c([N+](=O)[O-])c4)N[C@H](Cc4ccc(Cl)cc4)CO5)c(Oc4cnc5[nH]ccc5c4)c3)CC2)=C(c2ccc(Cl)cc2)C1 [Example 2-160, (R)-2-((1H-pyrrolo[2,3-b]pyridin-5-yl)oxy)-4-(4-((4′-chloro-5,5-dimethyl-3,4,5,6-tetra-hydro-[1,1′-biphenyl]-2-yl)methyl)piperazin-yl)-N-((3-(4-chlorobenzyl)-5-nitro-3,4-dihydro-2H-benzo[b][1,4]oxazin-7-yl)sulfo-nyl)benzamide]	168 nM
17 nM	COc1ccc(CC2COc3cc(S(=O)(=O)NC(=O)c4ccc(N5CCN(CC6=C(c7ccc(Cl)cc7)CC(C)(C)CC6)CC5)cc4Oc4cnc5[nH]ccc5c4)cc([N+](=O)[O-])c3N2)nc1 (centres unmarked) [Example 2-161, 2-((1H-pyrrolo[2,3-b]pyridin-5-yl)oxy)-4-(4-((4′-chloro-5,5-dimethyl-3,4,5,6-tetrahydro-[1,1′-biphenyl]-2-yl)methyl)piperazin-1-yl)-N-((3-((5-methoxypyridin-2-yl)methyl)-5-nitro-3,4-dihydro-2H-benzo[b][1,4]oxa-zin-7-yl)sulfonyl)benzamide]	20 nM
43 nM	COc1ccc(C[C@H]2COc3cc(S(=O)(=O)NC(=O)c4ccc(N5CCN(CC6=C(c7ccc(Cl)cc7)CC(C)(C)CC6)CC5)cc4Oc4cnc5[nH]ccc5c4)cc([N+](=O)[O-])c3N2)nc1 [Example 2-162, (S)-2-((1H-pyrrolo[2,3-b]pyridin-5-yl)oxy)-4-(4-((4′-chloro-5,5-dimethyl-3,4,5,6-tetra-hydro-[1,1′-biphenyl]-2-yl)methyl)piperazin-1-yl)-N-((3-((5-methoxypyridin-2-yl)meth-yl)-5-nitro-3,4-dihydro-2H-benzo[b][1,4]oxain-7-yl)sulfonyl)benzamide]	325 nM
29 nM	CC1(C)CCC(CN2CCN(c3ccc(C(=O)NS(=O)(=O)c4cc5c(c([N+](=O)[O-])c4)N[C@@H](Cc4cccnc4)CO5)c(Oc4cnc5[nH]ccc5c4)c3)CC2)=C(c2ccc(Cl)cc2)C1 [Example 2-163, (S)-2-((1H-pyrrolo[2,3-b]pyridin-5-yl)oxy)-4-(4-((4′-chloro-5,5-dimethyl-3,4,5,6-tetra-hydro-[1,1′-biphenyl]-2-yl)methyl)piperazin-1-yl)-N-((5-nitro-3-(pyridin-3-ylmethyl)-3,4-dihydro-2H-benzo[b][1,4]oxazin-7-yl)sulfonyl)benzamide]	53 nM
34 nM	CC1(C)CCC(CN2CCN(c3ccc(C(=O)NS(=O)(=O)c4cc5c(c([N+](=O)[O-])c4)N[C@@H](Cc4ccncc4)CO5)c(Oc4cnc5[nH]ccc5c4)c3)CC2)=C(c2ccc(Cl)cc2)C1 [Example 2-164]	16 nM
